Experimental data: the supplement of paper PMC10307832

Assays:
Assay in all cases: relative viability (nuclei count vs DMSO), 5 days (fraction); higher = more cells survive
HCC-366 = tested on: HCC-366
Summary of the method: (§1)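 Lung cancer cell lines in 1536-well plates got either a single drug or a fixed anchor-drug dose together with five library-drug doses (not always all listed) in √10 steps, by pin tool, on the day after seeding. Nuclei were counted after 5 days, and relative viability is the treated-to-vehicle ratio of nuclei counts. Values are medians of duplicate plates.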

LOU-NH91 = tested on: LOU-NH91
Summary of the method: as §1

NCI-H460 = tested on: NCI-H460
Summary of the method: as §1

NCI-H1734 = tested on: NCI-H1734
Summary of the method: as §1

NCI-H1793 = tested on: NCI-H1793
Summary of the method: as §1

NCI-H2228 = tested on: NCI-H2228
Summary of the method: as §1

ABC-1 = tested on: ABC-1
Summary of the method: as §1

NCI-H1755 = tested on: NCI-H1755
Summary of the method: as §1

CAL-12T = tested on: CAL-12T
Summary of the method: as §1

NCI-H1395 = tested on: NCI-H1395
Summary of the method: as §1

NCI-H2087 = tested on: NCI-H2087
Summary of the method: as §1

ChaGo-K-1 = settings: first compound 0.04 µM
Summary of the method: as §1

## O=C(O)c1ccc(-c2c[nH]c3ncc(-c4ccccc4)cc23)cc1C1CCCC1 + N=C(N)NC(=N)NCCc1ccccc1 [Phenformin] (partner 250 µM)
HCC-366; first compound 0.04 µM
  relative viability: 0.686
HCC-366; first compound 0.1265 µM
  relative viability: 0.631
HCC-366; first compound 0.4 µM
  relative viability: 0.607
HCC-366; first compound 1.265 µM
  relative viability: 0.611
LOU-NH91; first compound 0.04 µM
  relative viability: 0.73
LOU-NH91; first compound 0.1265 µM
  relative viability: 0.885
LOU-NH91; first compound 0.4 µM
  relative viability: 0.799
LOU-NH91; first compound 1.265 µM
  relative viability: 0.751
NCI-H460; first compound 0.04 µM
  relative viability: 0.536
NCI-H460; first compound 0.1265 µM
  relative viability: 0.526
NCI-H460; first compound 0.4 µM
  relative viability: 0.507
NCI-H460; first compound 1.265 µM
  relative viability: 0.46
NCI-H1734; first compound 0.04 µM
  relative viability: 0.419
NCI-H1734; first compound 0.1265 µM
  relative viability: 0.452
NCI-H1734; first compound 0.4 µM
  relative viability: 0.371
NCI-H1734; first compound 1.265 µM
  relative viability: 0.358
NCI-H1793; first compound 0.04 µM
  relative viability: 0.404
NCI-H1793; first compound 0.1265 µM
  relative viability: 0.494
NCI-H1793; first compound 0.4 µM
  relative viability: 0.374
NCI-H1793; first compound 1.265 µM
  relative viability: 0.365
NCI-H2228; first compound 0.04 µM
  relative viability: 0.37
NCI-H2228; first compound 0.1265 µM
  relative viability: 0.344
NCI-H2228; first compound 0.4 µM
  relative viability: 0.349
NCI-H2228; first compound 1.265 µM
  relative viability: 0.245
ABC-1; first compound 0.04 µM
  relative viability: 0.272
ABC-1; first compound 0.1265 µM
  relative viability: 0.232
ABC-1; first compound 0.4 µM
  relative viability: 0.229
ABC-1; first compound 1.265 µM
  relative viability: 0.181
NCI-H1755; first compound 0.04 µM
  relative viability: 0.597
NCI-H1755; first compound 0.1265 µM
  relative viability: 0.615
NCI-H1755; first compound 0.4 µM
  relative viability: 0.64
NCI-H1755; first compound 1.265 µM
  relative viability: 0.604
CAL-12T; first compound 0.04 µM
  relative viability: 0.549
CAL-12T; first compound 0.1265 µM
  relative viability: 0.629
CAL-12T; first compound 0.4 µM
  relative viability: 0.579
CAL-12T; first compound 1.265 µM
  relative viability: 0.337
NCI-H1395; first compound 0.04 µM
  relative viability: 0.452
NCI-H1395; first compound 0.1265 µM
  relative viability: 0.44
NCI-H1395; first compound 0.4 µM
  relative viability: 0.413
NCI-H1395; first compound 1.265 µM
  relative viability: 0.414
NCI-H2087; first compound 0.04 µM
  relative viability: 0.472
NCI-H2087; first compound 0.1265 µM
  relative viability: 0.461
NCI-H2087; first compound 0.4 µM
  relative viability: 0.397
NCI-H2087; first compound 1.265 µM
  relative viability: 0.393
ChaGo-K-1
  relative viability: 0.477
